Reference: US12527774B2, “Estrogen-related receptor alpha modulators” (LEAD PHARMA HOLDING B.V., priority 2019, dated 2026)

Target: ERRα ligand binding domain (ERRα-LBD) (Homo sapiens (Human), UniProt P11474)
Assay: ERRα AlphaScreen Assay
Assay type: biochemical
Conditions: disruption of binding of ERRα-LBD protein to biotin-PGC1α-3 co-activator peptide; for IC50: read-out: mean pIC50 (converted)
From the text: This assay was based on the knowledge that nuclear receptors interact with cofactors in a ligand dependent matter. The sites of interaction have been mapped to LXXLL motifs that are present in the co-activator sequences. Short peptide sequences that contain the LXXLL motif mimic the behavior of full length co-activators.
The ERRα AlphaScreen Assay described here relies on the interaction of the co-activator peptide with purified bacterial-expressed ERRα ligand binding domain (ERRα-LBD); upon ligand binding the ERRα protein can undergo a conformational change resulting in a loss of co-activator binding.
Compounds of the present invention were tested for their ability to disrupt binding of ERRα-LBD protein to co-activator peptide using AlphaScreen® Technology (Perkin Elmer). ERRα-LBD protein was expressed in E. coli as a 6×His Small Ubiquitin-like Modifier (SUMO) fusion. Bacterial expressed 6His-SUMO-ERRα-LBD protein was purified using affinity chromatography. All experiments were performed at room temperature in 384-well white non-binding plates (Greiner) using 50 mM Tris-HCl pH 7.5, 100 mM NaCl, 0,1% Pluronic F-127, 0.05% BSA and 5 mM TCEP as the buffer. Final DMSO concentration was 1% in the assay. Compounds were assayed in triplicate and: incubated with 0.81 nM ERRα-LBD protein and 10 μg/mL streptavidin donor beads and 10 μg/mL Ni-chelate acceptor beads for 1 hour at room temperature; followed by a 2-hour incubation with 15 nM biotin-PGC1α-3 peptide (QRRPCSELLKYLTTNDDPP) corresponding to amino acids 202 to 220.
The AlphaScreen signal was measured using an Envision Xcite plate reader (Perkin Elmer). Data was normalized, and curve fitting analysis was performed in GraphPad Prism 7 using a four-parameter dose-response fit.
As multiple IC50 values were annotated for the same compound-protein pair, a mean pIC50 for each compound was determined.

Chain of ERRα ligand binding domain (ERRα-LBD) (P11474 193-421): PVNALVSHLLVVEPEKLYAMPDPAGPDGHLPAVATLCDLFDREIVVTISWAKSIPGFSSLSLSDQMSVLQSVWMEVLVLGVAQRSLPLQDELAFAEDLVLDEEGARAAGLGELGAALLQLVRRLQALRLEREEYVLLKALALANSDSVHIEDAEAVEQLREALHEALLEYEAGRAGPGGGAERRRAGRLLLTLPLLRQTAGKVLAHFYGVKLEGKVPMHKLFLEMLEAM

In the case of `COc1cc(C2CC(=O)Nc3n[nH]cc32)ccc1OCc1ccccc1I` (stereo not drawn) [Example 23, 4-{4-[(2-iodophenyl)methoxy]-3-methoxyphenyl}-2H,4H,5H,6H, 7H-pyrazolo[3,4-b]pyridin-6-one], the “mean pIC50” value is reported as at least 8.
`O=C1CC(c2ccc(OCc3ccccc3C(F)(F)F)c(F)c2)c2c[nH]nc2N1` (stereo not drawn) [Example 74, 4-(3-fluoro-4-{[2-(trifluoromethyl)phenyl]methoxy}phenyl)-2H,4H,5H,6H, 7H-pyrazolo[3,4-b]pyridin-6-one] gave an IC50 of 10 to 100 nM.
Compound `COc1cc(C2CC(=O)Nc3ccsc32)ccc1OCc1ccccc1C(F)(F)F` (stereo not drawn) [Example 85, 7-(3-methoxy-4-{[2-(trifluoromethyl)phenyl]methoxy}phenyl)-4H,5H,6H, 7H-thieno[3,2-b]pyridin-5-one] has an IC50 of 10 to 100 nM.
In the case of `COc1cc(C2CC(=O)Nc3n[nH]cc32)ccc1COc1ccc(C(F)(F)F)cc1C` (stereo not drawn) [Example 112, 4-(3-methoxy-4-{[2-methyl-4-(trifluoromethyl)phenoxy]methyl}phenyl)-2H,4H,5H,6H,7H-pyrazolo[3,4-b]pyridin-6-one], the IC50 is reported as 10 to 100 nM.
For `COCCOc1cc(C2CC(=O)Nc3n[nH]cc32)ccc1OCc1ccccc1C(F)(F)F` (stereo not drawn) [Example 164, 4-[3-(2-methoxyethoxy)-4-{[2-(trifluoromethyl)phenyl]methoxy}phenyl]-2H,4H,5H,6H, 7H-pyrazolo[3,4-b]pyridin-6-one], the IC50 was 10 to 100 nM.
With `COc1ccc(COc2ccc(C3CC(=O)Nc4[nH]nnc43)cc2OC)c(C(F)(F)F)c1` (single isomer, unassigned; (+)) [Example 201, (+)-7-(3-methoxy-4-{[4-methoxy-2-(trifluoromethyl)phenyl]methoxy}phenyl)-3H,4H,5H,6H,7H-[1,2,3]triazolo[4,5-b]pyridin-5-one] the IC50 was 10 to 100 nM.
`CCc1cc(C2CC(=O)Nc3n[nH]cc32)ccc1OCc1ccccc1C(F)(F)F` (stereo not drawn) [Example 71, 4-(3-ethyl-4-{[2-(trifluoromethyl)phenyl]methoxy}phenyl)-2H,4H,5H,6H,7H-pyrazolo[3,4-b]pyridin-6-one] gave an IC50 of 10 to 100 nM.
For `COc1cc(C2CC(=O)Nc3n[nH]cc32)c(F)cc1OCc1ccccc1C(F)(F)F` (stereo not drawn) [Example 75, 4-(2-fluoro-5-methoxy-4-{[2-(trifluoromethyl)phenyl]methoxy}phenyl)-2H,4H,5H, 6H, 7H-pyrazolo[3,4-b]pyridin-6-one], the IC50 was 10 to 100 nM.
Work on `O=C1CC(c2ccc(OCc3ccccc3C(F)(F)F)cc2F)c2c[nH]nc2N1` (stereo not drawn) [Example 66, 4-(2-fluoro-4-{[2-(trifluoromethyl)phenyl]methoxy}phenyl)-2H,4H,5H,6H, 7H-pyrazolo[3,4-b]pyridin-6-one] yielded an IC50 of 100 to 1000 nM.
With `O=C1CC(c2cnc(OCc3ccccc3C(F)(F)F)nc2)c2c[nH]nc2N1` (stereo not drawn) [Example 165, 4-(2-{[2-(trifluoromethyl)phenyl]methoxy}pyrimidin-5-yl)-2H,4H,5H,6H, 7H-pyrazolo[3,4-b]pyridin-6-one] the IC50 was 100 to 1000 nM.
Work on `COCCCOc1cc(C2CC(=O)Nc3n[nH]cc32)ccc1OCc1ccccc1C(F)(F)F` (stereo not drawn) [Example 163, 4-[3-(3-methoxypropoxy)-4-{[2-(trifluoromethyl)phenyl]methoxy}phenyl]-2H,4H,5H,6H,7H-pyrazolo[3,4-b]pyridin-6-one] yielded an IC50 of 10 to 100 nM.
For `COc1cc(C2CC(=O)Nc3c[nH]nc32)ccc1OCc1ccc(CCO)cc1C(F)(F)F` (stereo not drawn) [Example 156, 7-(4-{[4-(2-hydroxyethyl)-2-(trifluoromethyl)phenyl]methoxy}-3-methoxyphenyl)-2H,4H,5H,6H, 7H-pyrazolo[4,3-b]pyridin-5-one], the IC50 was 10 to 100 nM.
In the case of `COc1cc(C2CC(=O)Nc3n[nH]cc32)ccc1OCc1ccccc1C(=O)OC(C)C` (stereo not drawn) [Example 127, propan-2-yl 2-(2-methoxy-4-{6-oxo-2H,4H,5H,6H,7H-pyrazolo[3,4-b]pyridin-4-yl}phenoxymethyl)benzoate], the IC50 is reported as 100 to 1000 nM.
`COc1cc(C2CC(=O)Nc3n[nH]cc32)ccc1COc1ccc(C)cc1C` (single isomer, unassigned; (+)) [Example 219, (+)-4-{4-[(2,4-dimethylphenoxy)methyl]-3-methoxyphenyl}-2H,4H,5H,6H,7H-pyrazolo[3,4-b]pyridin-6-one] was tested, and the IC50 was 100 to 1000 nM.
With `COc1cc(C2CC(=O)Nc3n[nH]cc32)ccc1OCc1c(F)cccc1C(F)(F)F` (stereo not drawn) [Example 21, 4-(4-{[2-fluoro-6-(trifluoromethyl)phenyl]methoxy}-3-methoxyphenyl)-2H,4H,5H,6H,7H-pyrazolo[3,4-b]pyridin-6-one] the IC50 was 100 to 1000 nM.
In the case of `COc1cc(C2CC(=O)Nc3n[nH]cc32)ccc1OCc1ccc(N(C)C)cc1C(F)(F)F` (stereo not drawn) [Example 138, 4-(4-{[4-(dimethylamino)-2-(trifluoromethyl)phenyl]methoxy}-3-methoxyphenyl)-2H,4H,5H,6H, 7H-pyrazolo[3,4-b]pyridin-6-one], the “mean pIC50” value is reported as at least 8.
`O=C1CC(c2ccc(OCc3ccccc3C(F)(F)F)cn2)c2c[nH]nc2N1` (stereo not drawn) [Example 63, 4-(5-{[2-(trifluoromethyl)phenyl]methoxy}pyridin-2-yl)-2H,4H,5H,6H, 7H-pyrazolo[3,4-b]pyridin-6-one] gave an IC50 of 100 to 1000 nM.
`COc1cc(Br)c(COc2ccc(-c3cc(=O)[nH]c4n[nH]cc34)cc2OC)cc1OC` [Example 184, 4-{4-[(2-bromo-4,5-dimethoxyphenyl)methoxy]-3-methoxyphenyl}-2H,6H, 7H-pyrazolo[3,4-b]pyridin-6-one] showed an IC50 of 100 to 1000 nM.
In the case of `COc1cc(C2CC(=O)Nc3n[nH]cc32)ccc1COc1ccc(C(F)F)cc1C(F)(F)F` (single isomer, unassigned; (+)) [Example 195, (+)-4-(4-{[4-(difluoromethyl)-2-(trifluoromethyl)phenoxy]methyl}-3-methoxyphenyl)-2H,4H,5H,6H,7H-pyrazolo[3,4-b]pyridin-6-one], the IC50 is reported as 10 to 100 nM.
Work on `COc1ccccc1COc1ccc(C2CC(=O)Nc3n[nH]cc32)cc1OC` (stereo not drawn) [Example 30, 4-{3-methoxy-4-[(2-methoxyphenyl)methoxy]phenyl}-2H,4H,5H,6H,7H-pyrazolo[3,4-b]pyridin-6-one] yielded an IC50 of 100 to 1000 nM.
`Nc1cc(C2CC(=O)Nc3n[nH]cc32)ccc1OCc1ccccc1C(F)(F)F` (stereo not drawn) [Example 161, 4-(3-amino-4-{[2-(trifluoromethyl)phenyl]methoxy}phenyl)-2H,4H,5H,6H, 7H-pyrazolo[3,4-b]pyridin-6-one] was tested, and the IC50 was 100 to 1000 nM.
`COc1cc(C2CC(=O)Nc3n[nH]cc32)ccc1COc1ccc(C(F)(F)F)cc1C(F)F` (stereo not drawn) [Example 117, 4-(4-{[2-(difluoromethyl)-4-(trifluoromethyl)phenoxy]methyl}-3-methoxyphenyl)-2H,4H,5H,6H, 7H-pyrazolo[3,4-b]pyridin-6-one] was tested, and the IC50 was 10 to 100 nM.
`COc1cc(C2CC(=O)Nc3n[nH]cc32)ccc1COc1ccc(C(F)(F)F)cc1C(F)F` (single isomer, unassigned; (-)) [Example 216, (−)-4-(4-{[2-(difluoromethyl)-4-(trifluoromethyl)phenoxy]methyl}-3-methoxyphenyl)-2H,4H,5H,6H,7H-pyrazolo[3,4-b]pyridin-6-one] showed an IC50 of 10 to 100 nM.
`COc1cc(C2CC(=O)Nc3n[nH]cc32)ccc1OCc1cccc2ccsc12` (stereo not drawn) [Example 45, 4-{4-[(1-benzothiophen-7-yl)methoxy]-3-methoxyphenyl}-2H,4H,5H,6H, 7H-pyrazolo[3,4-b]pyridin-6-one] showed an IC50 of 10 to 100 nM.
Work on `COC(=O)c1ccccc1COc1ccc(C2CC(=O)Nc3n[nH]cc32)cc1OC` (stereo not drawn) [Example 26, methyl 2-(2-methoxy-4-{6-oxo-2H,4H,5H,6H,7H-pyrazolo[3,4-b]pyridin-4-yl}phenoxymethyl)benzoate] yielded an IC50 of 10 to 100 nM.
`CCCCOC(=O)c1ccccc1COc1ccc(C2CC(=O)Nc3n[nH]cc32)cc1OC` (stereo not drawn) [Example 126, butyl 2-(2-methoxy-4-{6-oxo-2H,4H,5H,6H,7H-pyrazolo[3,4-b]pyridin-4-yl}phenoxymethyl)benzoate] showed an IC50 of 100 to 1000 nM.
`COc1cc(C2CC(=O)Nc3n[nH]c(F)c32)ccc1OCc1ccccc1C(F)(F)F` (stereo not drawn) [Example 95, 3-fluoro-4-(3-methoxy-4-{[2-(trifluoromethyl)phenyl]methoxy}phenyl)-2H,4H,5H,6H, 7H-pyrazolo[3,4-b]pyridin-6-one] was tested, and the IC50 was 100 to 1000 nM.
In the case of `COc1cc(C2CC(=O)Nc3c[nH]nc32)ccc1OCc1ccc(C(C)=O)cc1C(F)(F)F` (stereo not drawn) [Example 94, 7-(4-{[4-acetyl-2-(trifluoromethyl)phenyl]methoxy}-3-methoxyphenyl)-2H,4H,5H,6H, 7H-pyrazolo[4,3-b]pyridin-5-one], the IC50 is reported as 100 to 1000 nM.
With `COc1cc(C2CC(=O)Nc3n[nH]cc32)ccc1COc1cc(C)cc(C)c1` (stereo not drawn) [Example 113, 4-{4-[(3,5-dimethylphenoxy)methyl]-3-methoxyphenyl}-2H,4H,5H,6H,7H-pyrazolo[3,4-b]pyridin-6-one] the IC50 was 100 to 1000 nM.
`COc1cc(C2CC(=O)Nc3c[nH]nc32)ccc1OCc1ccc(N)cc1C(F)(F)F` (stereo not drawn) [Example 137, 7-(4-{[4-amino-2-(trifluoromethyl)phenyl]methoxy}-3-methoxyphenyl)-2H,4H,5H,6H, 7H-pyrazolo[4,3-b]pyridin-5-one] showed an IC50 of 100 to 1000 nM.
